Reference: the supplement of paper PMC10307832

Tests used:
Assay in all cases: relative viability (nuclei count vs DMSO), 5 days (fraction); higher = more cells survive
Linsitinib + Alpelisib = compound: C[C@]1(O)C[C@@H](c2nc(-c3ccc4ccc(-c5ccccc5)nc4c3)c3c(N)nccn32)C1 [Linsitinib] + Cc1nc(NC(=O)N2CCC[C@H]2C(N)=O)sc1-c1ccnc(C(C)(C)C(F)(F)F)c1 [Alpelisib] (partner 2 µM)
Summary of the method: (§1)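 A single step with final 0.05% Triton X-100, 1% formaldehyde and 1 ug/ml Hoechst fixed the cells and stained nuclei 5 days after treatment. Lung cancer cell lines in 1536-well plates had been treated by pin tool the day after seeding with one drug alone or a fixed anchor-drug dose plus five library-drug doses (not always all listed) in √10 steps, and nuclei were counted on 4× images. Relative viability is the ratio of nuclei in treated wells to nuclei in vehicle wells, taken as the median of duplicate plates.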

Ispinesib + OSI-027 = compound: Cc1ccc(C(=O)N(CCCN)[C@@H](c2nc3cc(Cl)ccc3c(=O)n2Cc2ccccc2)C(C)C)cc1 [Ispinesib] + COc1cccc2cc(-c3nc([C@H]4CC[C@H](C(=O)O)CC4)n4ncnc(N)c34)[nH]c12 [OSI-027] (partner 0.5 µM)
Summary of the method: as §1

Linsitinib + Phenformin = compound: C[C@]1(O)C[C@@H](c2nc(-c3ccc4ccc(-c5ccccc5)nc4c3)c3c(N)nccn32)C1 [Linsitinib] + N=C(N)NC(=N)NCCc1ccccc1 [Phenformin] (partner 250 µM)
Summary of the method: as §1

Ispinesib + Pictilisib = compound: Cc1ccc(C(=O)N(CCCN)[C@@H](c2nc3cc(Cl)ccc3c(=O)n2Cc2ccccc2)C(C)C)cc1 [Ispinesib] + CS(=O)(=O)N1CCN(Cc2cc3nc(-c4cccc5[nH]ncc45)nc(N4CCOCC4)c3s2)CC1 [Pictilisib] (partner 1 µM)
Summary of the method: as §1

| Cell Line | relative viability (Linsitinib + Alpelisib; first compound 0.01 µM) | relative viability (Linsitinib + Alpelisib; first compound 0.03162 µM) | relative viability (Linsitinib + Alpelisib; first compound 0.1 µM) | relative viability (Linsitinib + Alpelisib; first compound 0.3162 µM) | relative viability (Linsitinib + Alpelisib; first compound 1 µM) | relative viability (Ispinesib + OSI-027; first compound 0.001 µM) | relative viability (Ispinesib + OSI-027; first compound 0.003162 µM) | relative viability (Ispinesib + OSI-027; first compound 0.01 µM) | relative viability (Ispinesib + OSI-027; first compound 0.03162 µM) | relative viability (Ispinesib + OSI-027; first compound 0.1 µM) | relative viability (Linsitinib + Phenformin; first compound 0.01 µM) | relative viability (Linsitinib + Phenformin; first compound 0.03162 µM) | relative viability (Linsitinib + Phenformin; first compound 0.1 µM) | relative viability (Linsitinib + Phenformin; first compound 0.3162 µM) | relative viability (Linsitinib + Phenformin; first compound 1 µM) | relative viability (Ispinesib + Pictilisib; first compound 0.001 µM) | relative viability (Ispinesib + Pictilisib; first compound 0.003162 µM) | relative viability (Ispinesib + Pictilisib; first compound 0.01 µM) | relative viability (Ispinesib + Pictilisib; first compound 0.03162 µM) | relative viability (Ispinesib + Pictilisib; first compound 0.1 µM) |
| --- | --- | --- | --- | --- | --- | --- | --- | --- | --- | --- | --- | --- | --- | --- | --- | --- | --- | --- | --- | --- |
| RERF-LC-KJ | 0.838 | 0.9 | 0.832 | 0.878 | 0.757 | 0.527 | 0.541 | 0.405 | 0.246 | 0.268 | 0.408 | 0.368 | 0.463 | 0.425 | 0.409 | 0.508 | 1.42 | 0.445 | 0.322 | 0.297 |
| LU99A | 0.517 | 0.547 | 0.505 | 0.417 | 0.332 | 0.268 | 0.294 | 0.299 | 0.264 | 0.189 | 0.919 | 0.848 | 0.781 | 0.475 | 0.555 | 0.358 | 0.286 | 0.287 | 0.223 | 0.161 |
| NCI-H650 | 1.34 | 1.23 | 1.02 | – | 1.07 | 0.571 | 0.624 | 0.585 | 0.381 | 0.23 | 0.443 | 0.484 | 0.432 | 0.337 | 0.364 | 0.861 | 0.99 | 0.868 | 0.827 | 0.402 |
| NCI-H2347 | 1.01 | 1.21 | 1.01 | 0.595 | 0.902 | 0.317 | 0.421 | 0.456 | 0.368 | 0.437 | 0.391 | 0.534 | 0.385 | – | 0.467 | 0.798 | 0.92 | 0.592 | 0.523 | 0.419 |
| HARA | 0.802 | 0.768 | 0.732 | 0.409 | 0.716 | 0.641 | 0.553 | 0.535 | 0.0672 | 0.0972 | 0.427 | 0.469 | 0.435 | – | 0.4 | 0.445 | 0.43 | 0.392 | 0.467 | 0.179 |
| NCI-H2228 | 0.594 | 0.746 | 0.723 | 0.493 | 0.586 | 0.609 | 0.553 | 0.636 | 0.222 | 0.209 | 0.307 | 0.397 | 0.325 | 0.273 | 0.278 | 0.483 | 0.554 | 0.469 | 0.319 | 0.264 |
| EKVX | 0.842 | 0.848 | 0.856 | 0.901 | 0.756 | 0.731 | 0.75 | 0.777 | 0.75 | 0.634 | 0.278 | 0.21 | 0.235 | 0.216 | 0.224 | 0.442 | 0.423 | 0.508 | 0.543 | 0.438 |
| HCC-827 | 0.995 | 1.02 | 0.967 | – | 0.915 | 0.653 | 0.801 | 0.887 | 0.664 | 0.437 | 0.423 | 0.433 | 0.418 | – | 0.385 | 0.979 | 0.964 | 1.05 | 0.8 | 0.734 |
| NCI-H1755 | 0.938 | 0.875 | 0.961 | 0.78 | 0.896 | 0.665 | 0.791 | 0.859 | 0.57 | 0.321 | 0.66 | 0.64 | 0.629 | 0.372 | 0.503 | 0.403 | 0.464 | 0.534 | 0.22 | 0.194 |
| NCI-H661 | 0.593 | 0.539 | 0.46 | 0.667 | 0.449 | 0.744 | 0.831 | 0.721 | 0.493 | 0.263 | 0.291 | 0.221 | 0.268 | 0.293 | 0.255 | 0.387 | 0.471 | 0.41 | 0.31 | 0.332 |
| NCI-H1944 | 0.753 | 0.962 | 0.865 | 0.918 | 0.801 | 0.398 | 0.449 | 0.426 | 0.338 | 0.17 | 0.217 | 0.259 | 0.192 | 0.165 | 0.159 | 0.402 | 0.398 | 0.341 | 0.288 | 0.219 |
| NCI-H23 | 0.728 | 0.577 | 0.582 | 0.448 | 0.516 | 0.581 | 0.656 | 0.808 | 0.235 | 0.201 | 0.821 | 0.863 | 0.764 | 0.53 | 0.503 | 0.441 | 0.479 | 0.557 | 0.251 | 0.189 |
| HCC-366 | 0.416 | 0.239 | 0.446 | 0.242 | 0.201 | 0.944 | 1.01 | 1.33 | 0.204 | 0.0402 | 0.612 | 0.604 | 0.598 | 0.574 | 0.377 | 0.082 | 0.161 | 0.143 | 0.0978 | 0.0851 |
| LCLC-97TM1 | 0.237 | 0.267 | 0.189 | 0.215 | 0.206 | 0.629 | 0.616 | 0.553 | 0.239 | 0.12 | 0.41 | 0.432 | 0.43 | 0.194 | 0.205 | 0.251 | 0.187 | 0.192 | 0.111 | 0.126 |
| EMC-BAC-2 | 0.7 | 0.689 | 0.748 | 0.613 | 0.667 | 0.388 | 0.402 | 0.356 | 0.25 | 0.309 | 0.506 | 0.487 | 0.485 | 0.322 | 0.388 | 0.553 | 0.568 | 0.539 | 0.413 | 0.239 |
| NCI-H441 | 0.863 | 0.839 | 0.804 | 0.539 | 0.629 | 0.582 | 0.738 | 0.517 | 0.175 | 0.285 | 0.944 | 0.966 | 0.675 | 0.442 | 0.298 | 0.441 | 0.505 | 0.468 | 0.145 | 0.209 |
